According to PubChem BioAssay AID1918958 (Molecular Pharmacology Branch, DTP, NCI, 2023):
Where “and” joins values, the source holds several entries; their conditions need not be identical. Equal entries are not always repeated.

Tested on: NCI-H196 complex spheroid viability
Assay: Anticancer human tumor NCI-H196 cell line growth inhibition [LSD1];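 also: spheroids exposed to agents for 7 days before readout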;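 as to viability, T/C: 100% = DMSO vehicle control viability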
Settings: for viability, T/C: stronger effect = lower value
Summary of the method: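 Complex spheroids of tumor cells with HUVEC and human MSCs, exposed to iadademstat combined with other agents. Each agent tested in half-log steps from near clinical Cmax (else 10 microM top), DMSO ≤0.25%.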

[1] = curve of first compound, second compound 0.1 µM
[2] = curve of first compound, second compound 0.316 µM
[3] = curve of first compound, second compound 1 µM
[4] = curve of first compound, second compound 3.16 µM
[5] = curve of first compound, second compound 10 µM
[6] = second compound 0.1 µM, first compound 0.00949 µM
[7] = second compound 0.1 µM, first compound 0.03 µM
[8] = second compound 0.1 µM, first compound 0.0949 µM
[9] = second compound 0.1 µM, first compound 0.3 µM
[10] = second compound 0.1 µM, first compound 0.949 µM
[11] = second compound 0.1 µM, first compound 3 µM
[12] = second compound 0.316 µM, first compound 0.00949 µM
[13] = second compound 0.316 µM, first compound 0.03 µM
[14] = second compound 0.316 µM, first compound 0.0949 µM
[15] = second compound 0.316 µM, first compound 0.3 µM
[16] = second compound 0.316 µM, first compound 0.949 µM
[17] = second compound 0.316 µM, first compound 3 µM
[18] = second compound 1 µM, first compound 0.00949 µM
[19] = second compound 1 µM, first compound 0.03 µM
[20] = second compound 1 µM, first compound 0.0949 µM
[21] = second compound 1 µM, first compound 0.3 µM
[22] = second compound 1 µM, first compound 0.949 µM
[23] = second compound 1 µM, first compound 3 µM
[24] = second compound 3.16 µM, first compound 0.00949 µM
[25] = second compound 3.16 µM, first compound 0.03 µM
[26] = second compound 3.16 µM, first compound 0.0949 µM
[27] = second compound 3.16 µM, first compound 0.3 µM
[28] = second compound 3.16 µM, first compound 0.949 µM
[29] = second compound 3.16 µM, first compound 3 µM
[30] = second compound 10 µM, first compound 0.00949 µM
[31] = second compound 10 µM, first compound 0.03 µM
[32] = second compound 10 µM, first compound 0.0949 µM
[33] = second compound 10 µM, first compound 0.3 µM
[34] = second compound 10 µM, first compound 0.949 µM
[35] = second compound 10 µM, first compound 3 µM

| Structure (SMILES) | IC50 [1] [µM] | IC50 [2] [µM] | IC50 [3] [µM] | IC50 [4] [µM] | IC50 [5] [µM] | viability, T/C [6] [%] | viability, T/C [7] [%] | viability, T/C [8] [%] | viability, T/C [9] [%] | viability, T/C [12] [%] | viability, T/C [13] [%] | viability, T/C [14] [%] | viability, T/C [15] [%] | viability, T/C [18] [%] | viability, T/C [19] [%] | viability, T/C [20] [%] | viability, T/C [21] [%] | viability, T/C [24] [%] | viability, T/C [25] [%] | viability, T/C [26] [%] | other results |
| --- | --- | --- | --- | --- | --- | --- | --- | --- | --- | --- | --- | --- | --- | --- | --- | --- | --- | --- | --- | --- | --- |
| COc1ccc([C@@H](O)c2cc(-c3ncnc4cc(N5CCOCC5)ccc34)c(F)cc2Cl)nn1 | – | – | – | – | – | – | – | – | – | – | – | – | – | – | – | – | – | – | – | – | viability, T/C (compound 0.0316 µM): 97.9% and 93.4%; viability, T/C (compound 0.1 µM): 100% and 90.9%; viability, T/C (compound 0.316 µM): 90.4% and 84.7%; viability, T/C (compound 1 µM): 86.4% and 85.7%; viability, T/C (compound 3.16 µM): 83.8% and 73.6%; viability, T/C (compound 10 µM): 57.7% and 53.2%; IC50 (curve of compound): > 10 µM |
| COc1cc(C2c3cc4c(cc3C(OC3OC5COC(C)OC5C(O)C3O)C3COC(=O)C23)OCO4)cc(OC)c1O (configuration not stated) + NC1CCC(NC2CC2c2ccccc2)CC1 | > 3 | > 3 | > 3 | > 3 | > 3 | 94.1 | 97.2 | 113 | 104 | 102 | 90.1 | 104 | 104 | 89.5 | 105 | 98.8 | 103 | 120 | 91.2 | 104 | viability, T/C [10]: 87.1%; viability, T/C [11]: 59.7%; viability, T/C [16]: 94.7%; viability, T/C [17]: 66.1%; viability, T/C [22]: 93.4%; viability, T/C [23]: 70.3%; viability, T/C [27]: 110%; viability, T/C [28]: 89.6%; viability, T/C [29]: 55.9%; viability, T/C [30]: 103%; viability, T/C [31]: 91.9%; viability, T/C [32]: 95.5%; viability, T/C [33]: 96.3%; viability, T/C [34]: 81.6%; viability, T/C [35]: 59.1% |
| NS(=O)(=O)OCC1CC(n2ccc3c(NC4CCc5ccccc54)ncnc32)CC1O (configuration not stated) + NC1CC1c1ccc(-c2cccc(O)c2)cc1 | > 3 | > 3 | > 3 | > 3 | > 3 | 83.6 | 103 | 68 | 82.2 | 77.8 | 99.8 | 69.7 | 80.5 | 72.3 | 83.9 | 66.2 | 72 | 71.6 | 68.1 | 64.3 | viability, T/C [10]: 75.1%; viability, T/C [11]: 57.5%; viability, T/C [16]: 79.7%; viability, T/C [17]: 60.7%; viability, T/C [22]: 66%; viability, T/C [23]: 63.6%; viability, T/C [27]: 68.7%; viability, T/C [28]: 56%; viability, T/C [29]: 64.3%; viability, T/C [30]: 64.4%; viability, T/C [31]: 87.9%; viability, T/C [32]: 58.6%; viability, T/C [33]: 65.8%; viability, T/C [34]: 63%; viability, T/C [35]: 57% |
| Nc1ncn(C2CC(O)C(CO)S2)c(=O)n1 (configuration not stated) + NC1CCC(NC2CC2c2ccccc2)CC1 | > 0.3 | > 0.3 | > 0.3 | > 0.3 | > 0.3 | 121 | 118 | 122 | 118 | 108 | 114 | 112 | 127 | 113 | 109 | 109 | 110 | 105 | 124 | 107 | viability, T/C (second compound 0.1 µM, first compound 0.000949 µM): 112%; viability, T/C (second compound 0.1 µM, first compound 0.003 µM): 104%; viability, T/C (second compound 0.316 µM, first compound 0.000949 µM): 103%; viability, T/C (second compound 0.316 µM, first compound 0.003 µM): 102%; viability, T/C (second compound 1 µM, first compound 0.000949 µM): 93.7%; viability, T/C (second compound 1 µM, first compound 0.003 µM): 105%; viability, T/C (second compound 3.16 µM, first compound 0.000949 µM): 96.4%; viability, T/C (second compound 3.16 µM, first compound 0.003 µM): 106%; viability, T/C [27]: 108%; viability, T/C (second compound 10 µM, first compound 0.000949 µM): 108%; viability, T/C (second compound 10 µM, first compound 0.003 µM): 105%; viability, T/C [30]: 113%; viability, T/C [31]: 118%; viability, T/C [32]: 111%; viability, T/C [33]: 106% |
